Source: US20250066286A1, “COMPOSITIONS OF (Z)-ENDOXIFEN AND METHODS OF ENRICHMENT THEREOF” (Atossa Therapeutics, Inc., priority 2022, published 2025)
Like-named read-outs stand apart in the source and are kept apart here.

Experiments:
Type in all cases: physicochemical
[1] = Mechanical stability: grinding and kneading by ball milling (XRPD); conditions: for XRPD pattern after mechanical grinding: 10 minutes ball milling at 30 Hz; for XRPD pattern after kneading: 10 minutes ball milling at 30 Hz with catalytic 2-propanol (2 μl)
Procedure: Stability tests were performed on mixtures of Form I and Form IV; Form I and Form VII; and Form I, Form IV, and Form VII. In a first mechanical stability test, the polymorphs were analyzed by XRPD following 10 minutes of grinding by ball milling at 30 Hz. In a second mechanical stability test, the polymorphs were analyzed by XRPD following 10 minutes of kneading by ball milling at 30 Hz in the presence of a catalytic amount of 2-propanol (2 μl).

[2] = Storage stability of polymorphic forms at room temperature in a sealed vial (XRPD time course)
Procedure: Form I samples were collected for XR-PD analysis following 0, 7, and 42 days of storage, the results of which are shown in FIG. 10.
The stability of polymorphic Form IV was evaluated over 7 days of storage at room temperature in a sealed vial. Portions of the Form IV samples were collected for XRPD analysis following 0 (Form IV), 3 (Form IV-3D3-storage), and 7 days (Form IV-7D3-storage) of storage, the results of which are shown in FIG. 14.
The stability of polymorphic Form IV was also evaluated following crystallization from a room temperature 2-propanol/THF 95/5 (v/v) solvent system containing 40 mg/ml (Z)-endoxifen. XPRD was collected immediately after recovery and following 15 days storage at room temperature in a sealed vial. FIG. 15 provides the resultant XRPD patterns following 15 days storage (Form IV-2PR/THF-15D-storage) and 0 days storage (Form IV-2PR/THF-0D-storage), as well as an XRPD spectrum of Form IV (Form IV) obtained from 2-propanol recrystallization.
Since the room temperature evaporation in acetone yielded a mixture of polymorphic Form I and Form IV XRPD patterns with a very intense unassigned signal at 16.1° 2θ, the sample was re-measured following 7 days storage in a sealed vial. From top to bottom, FIG. 16 provides XRPD patterns of the acetone-generated polymorphs following 7 (EVRT-ACT-7D-storage) and 0 days of storage (EVRT-ACT-0D-storage), a Form IV spectrum (Form IV), and a Form I (Form I) spectrum, respectively.
Form XVII was further assessed after 3 days storage in a sealed vial at room temperature.
Form XVIII was further reassessed by XRPD following 3 and 7 days storage at room temperature in a sealed vial. The data from these analyses are summarized in FIG. 24, which (from top to bottom) provides the sample following 7 days storage (Form XVIII-7D-storage), the sample following 3 days storage (Form XVIII-3D-storage), and the sample immediately following crystallization (Form XVIII).
Form XIX room temperature stability was evaluated with XRPD. XRPD of a Form XIX sample immediately following crystallization (Form XIX) and following 7 days of storage (Form XIX-7D-storage) are shown in FIG. 26.
The stability of polymorphic Form V was over 10 days of storage at room temperature in a sealed vial. XR-PD was performed following 0, 3, and 10 days storage.
To evaluate Form VI stability, XRPD spectra of a Form VI sample were collected following 0, 3, and 14 days of room temperature storage in a sealed vial. The resulting XRPD patterns of the sample following 0 (Form VI), 3 (Form VI-3D-storage), and 14 days storage (Form VI-14D-storage) are shown in FIG. 30.
The stability of polymorphic Form VII was evaluated over 7 days of storage at room temperature in a sealed vial. Portions of the Form VII samples were collected for XRPD analysis over 7 days of storage, the results of which are shown in FIG. 32.
Form VIII stability over 7 days storage in a sealed vial at room temperature was evaluated with XRPD.
The stability of Form IX generated by precipitation from an ethyl acetate/heptane solvent system (Form IX Recrystallization (1)) was evaluated over 7 days of storage at room temperature. Portions of the Form IX sample were collected following 0 and 7 days of storage in a sealed vial and analyzed by XRPD analysis to identify possible changes in the polymorph.
Form IX stability was separately characterized for crystals generated through the addition of (Z)-endoxifen saturated ethyl acetate to heptane (Form IX Recrystallization (2)), which yielded higher crystallinity Form IX than was afforded by heptane addition to (Z)-endoxifen saturated ethyl acetate.
Form IX stability was further evaluated for crystals generated by precipitation from an acetone/butyl methyl ether (acetone/BME) solvent/antisolvent mixture (Form IX Recrystallization (4)). Portions of the Form IX sample were collected following 0 and 5 days of storage in a sealed vial at room temperature and compared to reference XRPD patterns of Forms VII and IX. […]

[3] = Thermogravimetric analysis (TGA), degradation
Procedure: The TGA profile of Form I is shown in the top panel of FIG. 12 with the heat-flow profile in the middle panel of FIG. 12, and the first derivative of the TGA profile in the bottom pane of FIG. 12. […] A weight loss of 0.2% was detected between 140° C. and 180° C., potentially ascribable to solvent release. Degradation of Form I took place above 270° C. The heat-flow profile included two main peaks around 50° C. and 160° C. The first derivative of the TGA profile indicated a greatest decline in the TGA profile occurred around 400° C., and that weight loss occurred around 320° C.

[4] = Stability at various temperatures and relative humidities, seven days (XRPD); conditions: 7 days
Procedure: The stabilities of the polymorphs were also assessed at various temperatures and relative humidities. These analyses were performed by storing 20 mg of polymorph samples for seven days at: (1) 25° C. and 100% relative humidity, (2) 40° C. and 75% relative humidity, (3) 25° C. and 60% relative humidity, and (4) at 60° C. and 75% relative humidity. XRPD was collected on the samples following these incubations and compared to XRPD of the samples prior to storage.

[5] = 25° C. and 100% relative humidity
[6] = 40° C. and 75% relative humidity
[7] = 3 days, room temperature, sealed vial
[8] = 7 days, room temperature, sealed vial

Q: For `CC/C(=C(\c1ccc(O)cc1)c1ccc(OCCNC)cc1)c1ccccc1` [Form I, (Z)-endoxifen], which “XRPD pattern after mechanical grinding” value [1] is on record?
A: converted portions of Form I to amorphous endoxifen

Q: What about the “XRPD pattern after kneading” value [1] of the same molecule?
A: converted portions of Form I to amorphous endoxifen

Q: What about the “XRPD change on storage” value ([2]; 0, 7, and 42 days of storage) of the same molecule?
A: stable under ambient conditions

Q: What about the “Degradation temperature (TGA)” value [3] of the same molecule?
A: above 270 °C

Q: What about the “Degradation temperature (TGA)” value ([3]; sample from scaled-up crystallization) of the same molecule?
A: 270 °C

Q: And the “XRPD pattern after storage” value [4, 5]?
A: did not induce detectable changes in the Form I XRPD

Q: What about the “XRPD pattern after storage” value [4, 6] of the same molecule?
A: no significant changes to the XRPD pattern

Q: Which “XRPD change on storage” value ([2]; 5 days, room temperature, sealed vial, Form IX from acetone/butyl methyl ether (Form IX Recrystallization (4))) does the source give for `CC/C(=C(\c1ccc(O)cc1)c1ccc(OCCNC)cc1)c1ccccc1` [Form IX, (Z)-endoxifen] here?
A: new signal at 9.1° 2θ, possibly indicating the presence of Form VII as well as partial amorphization of the sample

Q: What about the “XRPD change on storage” value ([2]; 7 days, room temperature, sealed vial, Form IX Recrystallization (1), ethyl acetate/heptane) of the same molecule?
A: stable under ambient conditions

Q: And the “XRPD change on storage” value ([2]; 7 days, room temperature, sealed vial, Form IX Recrystallization (2))?
A: weak XRPD signals ascribable to small amounts of Form I

Q: What about the “XRPD change on storage” value ([2]; 8 days, room temperature, sealed vial, Form IX from room temperature ethyl acetate/heptane 50/50 (v/v) slurries, unassigned signals at 10.1, 11.7, 16.8, 18.5, 19.4, 23.1) of the same molecule?
A: these peaks persisted following 8 days of storage

Q: What about the “XRPD change on storage” value ([2]; 13 days, room temperature, sealed vial, Form IX Recrystallization (2)) of the same molecule?
A: weak XRPD signals ascribable to small amounts of Form I

Q: And the “Degradation temperature (TGA)” value [3]?
A: above 270 °C

Q: Which results are given for `CC/C(=C(\c1ccc(O)cc1)c1ccc(OCCNC)cc1)c1ccccc1` [Form V, (Z)-endoxifen]?
A: XRPD change on storage [2, 7]: converted almost completely to Form VI; XRPD change on storage ([2]; 10 days, room temperature, sealed vial): completely to Form VI

Q: With `CC/C(=C(\c1ccc(O)cc1)c1ccc(OCCNC)cc1)c1ccccc1` [Form VI, (Z)-endoxifen] as the molecule, how does the “XRPD change on storage” value ([2]; 14 days, room temperature, sealed vial) read?
A: stable under ambient conditions

Q: With `CC/C(=C(\c1ccc(O)cc1)c1ccc(OCCNC)cc1)c1ccccc1` [Form VII, (Z)-endoxifen] as the molecule, how does the “XRPD change on storage” value [2, 8] read?
A: stable under ambient conditions

Q: What about the “Degradation temperature (TGA)” value [3] of the same molecule?
A: above 270 °C

Q: And the “XRPD pattern after storage” value [4, 5]?
A: no significant change to the XRPD pattern

Q: What about the “XRPD pattern after storage” value [4, 6] of the same molecule?
A: no significant change to the XRPD pattern

Q: For `CC/C(=C(\c1ccc(O)cc1)c1ccc(OCCNC)cc1)c1ccccc1` [Form VIII, (Z)-endoxifen], which “XRPD change on storage” value [2, 8] is on record?
A: no significant difference

Q: Which “XRPD change on storage” value [2, 8] does the source give for `CC/C(=C(\c1ccc(O)cc1)c1ccc(OCCNC)cc1)c1ccccc1` [Form X, (Z)-endoxifen] here?
A: near complete conversion to Form XI

Q: With `CC/C(=C(\c1ccc(O)cc1)c1ccc(OCCNC)cc1)c1ccccc1` [Form XI, (Z)-endoxifen] as the molecule, how does the “XRPD change on storage” value ([2]; 18 days, room temperature) read?
A: stable under ambient conditions

Q: Which “XRPD change on storage” value ([2]; 2 days, room temperature, sealed vial) does the source give for `CC/C(=C(\c1ccc(O)cc1)c1ccc(OCCNC)cc1)c1ccccc1` [Form XII, (Z)-endoxifen] here?
A: stable under ambient conditions

Q: With `CC/C(=C(\c1ccc(O)cc1)c1ccc(OCCNC)cc1)c1ccccc1` [Form XIV, (Z)-endoxifen] as the molecule, how does the “XRPD change on storage” value [2, 7] read?
A: partial conversion to Forms I and VII

Q: And the “XRPD change on storage” value [2, 8]?
A: partial conversion to Forms I and VII

Q: For `CC/C(=C(\c1ccc(O)cc1)c1ccc(OCCNC)cc1)c1ccccc1` [Form XIX, (Z)-endoxifen], which “XRPD change on storage” value [2, 8] is on record?
A: stable under ambient conditions

Q: With `CC/C(=C(\c1ccc(O)cc1)c1ccc(OCCNC)cc1)c1ccccc1` [Form XV, (Z)-endoxifen] as the molecule, how does the Room temperature stability ([2]; duration not given) read?
A: limited room temperature stabilities

Q: Which “XRPD change on storage” value [2, 7] does the source give for `CC/C(=C(\c1ccc(O)cc1)c1ccc(OCCNC)cc1)c1ccccc1` [Form XVII, (Z)-endoxifen] here?
A: complete conversion of Form XVII (Form XVII) into Form I

Q: With `CC/C(=C(\c1ccc(O)cc1)c1ccc(OCCNC)cc1)c1ccccc1` [Form XVIII, (Z)-endoxifen] as the molecule, how does the “XRPD change on storage” value [2, 8] read?
A: partial amorphization

Q: Which “XRPD change on storage” value [2, 8] does the source give for `CC/C(=C(\c1ccc(O)cc1)c1ccc(OCCNC)cc1)c1ccccc1` [Forms I and IV polymorphic mixture, (Z)-endoxifen] here?
A: No significant changes were detected

Q: For `CC/C(=C(\c1ccc(O)cc1)c1ccc(OCCNC)cc1)c1ccccc1` [first mixture of Form I and Form VII, (Z)-endoxifen], which “XRPD pattern after mechanical grinding” value [1] is on record?
A: amorphous (Z)-endoxifen with signals ascribable to Form I and Form VII

Q: Which “XRPD pattern after mechanical grinding” value [1] does the source give for `CC/C(=C(\c1ccc(O)cc1)c1ccc(OCCNC)cc1)c1ccccc1` [mixture of Form I and Form IV, (Z)-endoxifen] here?
A: Form I with traces of Form IV

Q: And the “XRPD pattern after kneading” value [1]?
A: Form I with a signal at 4.8° 20 ascribable to Form IV

Q: And the “XRPD pattern after storage” value ([4]; 25° C./60% RH)?
A: mixture of Form I and Form IV

Q: And the “XRPD pattern after storage” value ([4]; 60° C./75% RH)?
A: XRPD pattern of Form I

Q: With `CC/C(=C(\c1ccc(O)cc1)c1ccc(OCCNC)cc1)c1ccccc1` [mixture of Form I, Form IV, and Form VII, (Z)-endoxifen] as the molecule, how does the “XRPD pattern after mechanical grinding” value [1] read?
A: Form I with a slightly lowered degree of crystallinity

Q: What about the “XRPD pattern after kneading” value [1] of the same molecule?
A: Form I with a mild signal at 4.8° 20 ascribable to Form IV

Q: And the “XRPD pattern after storage” value ([4]; 25° C./60% RH)?
A: mixture of Form I, Form IV, and Form VII

Q: And the “XRPD pattern after storage” value ([4]; 60° C./75% RH)?
A: mixture of Form I and Form VII

Q: What does the source list for `CC/C(=C(\c1ccc(O)cc1)c1ccc(OCCNC)cc1)c1ccccc1` [mixture of Form XII and Form XIII, (Z)-endoxifen]?
A: XRPD change on storage ([2]; 4 days, room temperature, sealed vial): conversion of Form XIII to Form XII; XRPD change on storage ([2]; 5 days total, room temperature, sealed vial): conversion to only Form XII

Q: Which “XRPD pattern after mechanical grinding” value [1] does the source give for `CC/C(=C(\c1ccc(O)cc1)c1ccc(OCCNC)cc1)c1ccccc1` [second mixture of Form I and Form VII, (Z)-endoxifen] here?
A: Form I and Form VII with slightly lowered crystallinity
